Several values for one entry are separate records, joined by “and”; a condition that tells them apart may be missing. Identical values can stand only once.
Key:
[1] = system: primary culture myocardium cell damaged by hypoxia/reoxygenation; test: Anti-hypoxia/reoxygenation injury effect on primary culture myocardium cell (MTT); format: cell-based, Neonatal SD rat
From the text: Take ventricle from Neonatal SD rat, wash with D-Hank's and cut to small pieces, digest with collagenase II to obtain the myocardium cell and fibroblast, which are cultivated with high glucose DMEM (dmem-h-15) culture medium containing 15% fetal bovine serum. Remove the fibroblast through differential adhesion and chemistry method, and inoculate myocardium cell on the 96-well plates.
2.1.3 Anti-Hypoxia/Reoxygenation Injury Effect of CMPC to Primary Culture Myocardium Cell.
Cell cultivation method is the same as that in 2.1.1
Preparation of model: Preparing the model by using the myocardium cell cultured for 48˜72 h, dividing the cell on the culture plate to following groups: Control Group, Model Group, Verapamil Group (2, 0.4, 0.08 mg/l final concentration) and CMPM Group (final concentration of 50, 10, 2, 0.4, 0.08, 0.016, 0.0032 mg/l), 3 wells for every group. Except the Control Group, the other groups are prepared by following method: placing the monolayer myocardium cell on center of culture plate on low glucose medium (containing Verapamil or CMPM with corresponding concentration), then placing the culture plate into the vacuum drying machine, filling nitrogen, and hermetically culturing, causing myocardial injury after oxygen lack for 15 hours, then being cultured for 1 hour by high glucose DMEM medium (95% atmosphere and 5% CO2) to cause reoxygention injury. Measuring the absorbance value at 540 nm by using MTT method, and the same as above, calculating the protective rate to figure out EC50.

[2] = system: vitro cultured myocardium poisoned by adriamycin; test: Activity detection experiment of cultivation of myocardium cell (MTT); format: cell-based; settings: mitochondria dehydrogenase activity of adriamycin-damaged myocardium, listed as peptide
From the text: “Activity detection experiment of cultivation of myocardium cell” provided by DaLian Zhen-Ao Pharmaceutical CO., LTD is adopted in the activity detection. The experiment is based on test of vitro cultured myocardium poisoned by adriamycin, wherein, […] (MTT) is used as reaction indicator to observe the enhancement of the activity of mitochondria dehydrogenase of the damaged myocardium conducted by cardio myopeptidin, to determine the protective effect of myocardium.

[3] = system: primary culture myocardium cell damaged by adriamycin; test: Effect of CMPC against adriamycin injury of primary culture myocardium cell (MTT); format: cell-based, Neonatal SD rat
Method: Remove the fibroblast through differential adhesion and chemistry method, and inoculate myocardium cell on the 96-well plates.
2.1.2 The Against Function of Cmpc to Injury of Adriamycin to Primary Culture Myocardium Cell.
Cell culture method is the same as 2.1.1
Preparation of model: Blank Control Group: cultivating myocardium cell with DMEM-H-15;
Model Group: adding 1 mg/L adriamycin, washing the plate with DMEM-H-15 two times after being cultivated for 1 h, adding DMEM-H-15 for cultivation;
Protective rate=(Ax−Amodel)/(Acontrol−Amodel)×100%;
(Ax, Amode, Acontrol respectively represent Absorbance value of Drug administration groups, Model Group and Blank control group.

## KGAWSNVLRGMGGAF [CMPC, Lys-Gly-Ala-Trp-Ser-Asn-Val-Leu-Arg-Gly-Met-Gly-Gly-Ala-Phe]
[1]; Plate 1, Dosage 0.0032 mg/L
  % (protective rate): 4.11%
  A540: 0.496 ± 0.031
[1]; Plate 1, Dosage 0.016 mg/L
  % (protective rate): 14.69%
  A540: 0.526 ± 0.032
[1]; Plate 1, Dosage 0.08 mg/L
  % (protective rate): 26.09%
  A540: 0.558 ± 0.025
[1]; Plate 1, Dosage 0.4 mg/L
  % (protective rate): 38.95%
  A540: 0.594 ± 0.043
[1]; Plate 1, Dosage 2 mg/L
  % (protective rate): 28.91%
  A540: 0.566 ± 0.057
[1]; Plate 1, Dosage 10 mg/L
  % (protective rate): 17.74%
  A540: 0.534 ± 0.033
[1]; Plate 1, Dosage 50 mg/L
  % (protective rate): 9.05%
  A540: 0.510 ± 0.030
[1]; Plate 2, Dosage 0.0032 mg/L
  % (protective rate): 20.37%
  A540: 0.543 ± 0.052
[1]; Plate 2, Dosage 0.016 mg/L
  % (protective rate): 22.85%
  A540: 0.550 ± 0.024
[1]; Plate 2, Dosage 0.08 mg/L
  % (protective rate): 48.52%
  A540: 0.622 ± 0.047
[1]; Plate 2, Dosage 0.4 mg/L
  % (protective rate): 40.20%
  A540: 0.599 ± 0.032
[1]; Plate 2, Dosage 2 mg/L
  % (protective rate): 30.99%
  A540: 0.573 ± 0.052
[1]; Plate 2, Dosage 10 mg/L
  % (protective rate): 19.36%
  A540: 0.540 ± 0.026
[1]; Plate 2, Dosage 50 mg/L
  % (protective rate): 18.12%
  A540: 0.536 ± 0.036
[1]; Plate 3, Dosage 0.0032 mg/L
  % (protective rate): 15.86%
  A540: 0.763 ± 0.018
[1]; Plate 3, Dosage 0.016 mg/L
  % (protective rate): 24.20%
  A540: 0.777 ± 0.014
[1]; Plate 3, Dosage 0.08 mg/L
  % (protective rate): 38.05%
  A540: 0.800 ± 0.020
[1]; Plate 3, Dosage 0.4 mg/L
  % (protective rate): 47.29%
  A540: 0.815 ± 0.014
[1]; Plate 3, Dosage 2 mg/L
  % (protective rate): 64.26%
  A540: 0.843 ± 0.032
[1]; Plate 3, Dosage 10 mg/L
  % (protective rate): 34.43%
  A540: 0.790 ± 0.023
[1]; Plate 3, Dosage 50 mg/L
  % (protective rate): 14.96%
  A540: 0.761 ± 0.019
[2]
  Activity value: 2.3570 and 2.7328 and 2.564
[3]; Plate 1, Dosage 0.0032 mg/L
  % (protective rate): 2.01%
  A540: 0.662 ± 0.036
[3]; Plate 1, Dosage 0.016 mg/L
  % (protective rate): 33.08%
  A540: 0.695 ± 0.039
[3]; Plate 1, Dosage 0.08 mg/L
  % (protective rate): 40.49%
  A540: 0.703 ± 0.012
[3]; Plate 1, Dosage 0.4 mg/L
  % (protective rate): 58.27%
  A540: 0.723 ± 0.018
[3]; Plate 1, Dosage 2 mg/L
  % (protective rate): 27.98%
  A540: 0.690 ± 0.025
[3]; Plate 1, Dosage 10 mg/L
  % (protective rate): 4.79%
  A540: 0.665 ± 0.032
[3]; Plate 1, Dosage 50 mg/L
  % (protective rate): 2.47%
  A540: 0.662 ± 0.031
[3]; Plate 2, Dosage 0.0032 mg/L
  % (protective rate): 36.17%
  A540: 0.755 ± 0.033
[3]; Plate 2, Dosage 0.016 mg/L
  % (protective rate): 35.55%
  A540: 0.755 ± 0.024
[3]; Plate 2, Dosage 0.08 mg/L
  % (protective rate): 49.30%
  A540: 0.769 ± 0.055
[3]; Plate 2, Dosage 0.4 mg/L
  % (protective rate): 56.11%
  A540: 0.777 ± 0.057
[3]; Plate 2, Dosage 2 mg/L
  % (protective rate): 33.85%
  A540: 0.753 ± 0.065
[3]; Plate 2, Dosage 10 mg/L
  % (protective rate): 33.54%
  A540: 0.752 ± 0.039
[3]; Plate 2, Dosage 50 mg/L
  % (protective rate): 33.08%
  A540: 0.752 ± 0.036
[3]; Plate 3, Dosage 0.016 mg/L
  % (protective rate): 55.92%
  A540: 0.810 ± 0.020
[3]; Plate 3, Dosage 0.08 mg/L
  % (protective rate): 60.35%
  A540: 0.819 ± 0.016
[3]; Plate 3, Dosage 0.4 mg/L
  % (protective rate): 42.34%
  A540: 0.781 ± 0.050
[3]; Plate 3, Dosage 2 mg/L
  % (protective rate): 39.42%
  A540: 0.775 ± 0.008
[3]; Plate 3, Dosage 10 mg/L
  % (protective rate): 36.41%
  A540: 0.768 ± 0.057
[3]; Plate 3, Dosage 50 mg/L
  % (protective rate): 30.49%
  A540: 0.756 ± 0.014

Source: patent US8940865B2, “Myocardial peptide, preparation method and uses thereof” (Dalian Zhen-Ao Pharmaceutical Co, Ltd., priority 2008, dated 2015)
